# Measurements from patent EP1000543A1, “A method for inducing resistance of plants to mycotoxin-producing fungi” (PROGUARD, INC., priority 1994, dated 1996).
# Tests used:
# [1] = system: Fusarium subglutinans f. sp. pini; experiment: bioassay based on inhibition of radial growth on potato dextrose agar (colony diameter); format: cell-based, Fusarium subglutinans f. sp. pini (isolate SL-1, UCB); settings: for Radical Growth of Fusarium subglutinas f.sp. pini (colony diameter): 18° C, 5 days; for radical growth of Fusarium subglutinans: cinnamic aldehyde in vehicle with or without saponin, glutaraldehyde 2%
# Procedure: A bioassay based on inhibition of radial growth of Fusarium subglutinans f. sp. pini was used to test various aldehyde formulations. The bioassay was performed in a double blind fashion under sterile conditions. All concentrations given are those of particular solutions before dilution in the agar. Eight ml of test formulation was pipetted into 200 ml of molten 2% potato dextrose agar (DIFCO), and the mixture was dispersed into 5 plastic petri dishes (25 ml dish). Test formulations of 5 ppm benomyl were used as a positive control and sterile H2O as a negative control. Each of four plates was inoculated at the center with an agar plug transferred from a growing PDA culture of Fusarium subglutinans f. sp. pini (isolate SL-1, UCB) for each test formulation. A fifth plate was left noninoculated as a control for inhibited growth.
# All inoculated and non-inoculated plates were incubated at 18° C for 5 days, after which colony diameters were measured. […] No growth of the colony (diameter=0) indicates a maximum growth inhibition.
# [2] = at 25°C; cited from earlier work
# vapor pressure = format: physicochemical; settings: at 25°C
compound,measurement,setting,value
"CCCCNC(=O)n1c(NC(=O)OC)nc2ccccc21 [Benomyl, reference compound]",Radical Growth of Fusarium subglutinas f.sp. pini (colony diameter),"[1]; positive control, 5 ppm benomyl, no Cinnamic Aldehyde",0
"O=CCCCC=O [Glutaraldehyde, reference compound]",Radical Growth of Fusarium subglutinas f.sp. pini (colony diameter),"[1]; 2% glutaraldehyde, no Cinnamic Aldehyde",3.663
same,radical growth of Fusarium subglutinans,[1]; result in words,inhibited
"CCCCCCC(C=O)=Cc1ccccc1 [HCA, 2-hexyl-3-phenyl-2-propenal]",vapor pressure,[2],70 x 10^-5 mm Hg
"CCN(CC)c1cccc(C)c1 [N,N-diethyl-m-toluamine, reference compound]",vapor pressure,[2],167 x 10^-5 mm Hg
cinnamic aldehyde,Radical Growth of Fusarium subglutinas f.sp. pini (colony diameter),"[1]; Cinnamic Aldehyde 10 ppm in 2% Tween 80, 6% NaHCO3, with Saponin",4.088
same,Radical Growth of Fusarium subglutinas f.sp. pini (colony diameter),"[1]; Cinnamic Aldehyde 10 ppm in 2% Tween 80, 6% NaHCO3, no additive, concentration before dilution in agar",4.363
same,Radical Growth of Fusarium subglutinas f.sp. pini (colony diameter),"[1]; Cinnamic Aldehyde 100 ppm in 2% Tween 80, 6% NaHCO3, with Saponin",4.300
same,Radical Growth of Fusarium subglutinas f.sp. pini (colony diameter),"[1]; Cinnamic Aldehyde 100 ppm in 2% Tween 80, 6% NaHCO3, no additive, concentration before dilution in agar",4.238
same,Radical Growth of Fusarium subglutinas f.sp. pini (colony diameter),"[1]; Cinnamic Aldehyde 2,500 ppm in 2% Tween 80, 6% NaHCO3, with Saponin",3.600
same,Radical Growth of Fusarium subglutinas f.sp. pini (colony diameter),"[1]; Cinnamic Aldehyde 2,500 ppm in 2% Tween 80, 6% NaHCO3, no additive, concentration before dilution in agar",3.513
same,Radical Growth of Fusarium subglutinas f.sp. pini (colony diameter),"[1]; Cinnamic Aldehyde 5000 ppm in 2% Tween 80, 6% NaHCO3, with Saponin",2.913
same,Radical Growth of Fusarium subglutinas f.sp. pini (colony diameter),"[1]; Cinnamic Aldehyde 5000 ppm in 2% Tween 80, 6% NaHCO3, no additive, concentration before dilution in agar",2.980
same,Radical Growth of Fusarium subglutinas f.sp. pini (colony diameter),"[1]; Cinnamic Aldehyde 12,500 ppm in 2% Tween 80, 6% NaHCO3, with Saponin",0
same,Radical Growth of Fusarium subglutinas f.sp. pini (colony diameter),"[1]; Cinnamic Aldehyde 12,500 ppm in 2% Tween 80, 6% NaHCO3, no additive, concentration before dilution in agar",0
same,Radical Growth of Fusarium subglutinas f.sp. pini (colony diameter),"[1]; Cinnamic Aldehyde 25,000 ppm in 2% Tween 80, 6% NaHCO3, with Saponin",0
same,Radical Growth of Fusarium subglutinas f.sp. pini (colony diameter),"[1]; Cinnamic Aldehyde 25,000 ppm in 2% Tween 80, 6% NaHCO3, no additive, concentration before dilution in agar",0
same,Radial growth,"[1]; result in words, at 12,500 ppm",completely inhibited
same,radical growth of Fusarium subglutinans,[1]; result in words,inhibited
same,vapor pressure relative to HCA,vapor pressure,approximately 40 times higher
same,vapor pressure,[2],2970 x 10^-5 mm Hg
